# Laboratory results reported in patent US20090163696A1, “METHOD FOR PREPARING LYSOBACTIN DERIVATIVES” (priority 2006, published 2009).
# *1 amine or outer side, *2 acyl side, *3 side chain or, on linkers, in order; H or OH if unused. Where a SMILES comes first, the peptide text is derived from it. Bridges are numbered along the chain shown (N, C = ends). [ ]: non-standard residue; d: D form. ξ: configuration not given here. Phe(3R-OH) = O=C([C@@H](N[*:1])[C@H](O[*:3])c1ccccc1)[*:2]; Asn(3S-OH) = NC(=O)[C@@H](O)[C@H](N)C(=O)O; Leu(3R-OH) = CC(C)[C@@H](O)[C@H](N)C(=O)O; aThr = C[C@H](O)[C@H](N)C(=O)O; ξS = NC(CO)C(=O)O
# System: Staphylococcus aureus 133, Entercococcus faecalis ICB27159 and Streptococcus pneumoniae G9a
# Assay: Determination of the minimum inhibitory concentration (MIC), liquid dilution test
# Assay type: cell-based
# Details: lysobactin prepared by complete synthesis compared with fermented lysobactin
# Protocol: The in vitro effect of the compounds of the invention can be shown in the following assay: Determination of the Minimum Inhibitory Concentration (MIC): The MIC is determined in the liquid dilution test in accordance with the NCCLS guidelines. Overnight cultures of Staphylococcus aureus 133, Entercococcus faecalis ICB27159 and Streptococcus pneumoniae G9a are incubated with the described test substances in a 1:2 dilution series. The MIC determination is carried out with a cell count of 10^5 microbes per ml in Isosensitest medium (Difco, Irvine/USA), with the exception of S. pneumoniae, which is tested in BHI broth (Difco, Irvine/USA) with 10% bovine serum at a cell count of 10^6 microbes per ml. The cultures are incubated at 37° C. for 18-24 hours, S. pneumoniae in the presence of 10% CO2. The MIC is defined as the lowest concentration of each substance at which no visible bacterial growth occurs any longer. The MIC values are reported in μg/ml.
structure (smiles),measurement,value
"CC[C@H](C)[C@@H]1NC(=O)[C@@H](CCCNC(=N)N)NC(=O)[C@H](CC(C)C)NC(=O)[C@H]([C@H](O)C(C)C)NC(=O)[C@@H](NC(=O)[C@H](CC(C)C)NC(=O)[C@H](N)CC(C)C)[C@@H](c2ccccc2)OC(=O)C(CO)NC(=O)[C@H]([C@H](O)C(N)=O)NC(=O)CNC(=O)[C@H]([C@H](C)O)NC1=O (stereo partly drawn) [lysobactin, Lysobactin Bistrifluoroacetate] (H-[dL]L[Phe(3R-OH)][Leu(3R-OH)]L[dR]I[aThr]G[Asn(3S-OH)][ξS]; ester 3-C)",physiological activity (MIC),No significant differences
